Data from the supplement of paper PMC10307832.

Assays:
Test in all cases: relative viability (nuclei count vs DMSO), 5 days (fraction); higher = more cells survive
[1] = compound: CC1=CC=C(C=C1)C(=O)CN2C3=C(CCCC3)SC2=N [Pifithrin_alpha] + CC(C)C[C@H](NC(=O)[C@H](Cc1ccccc1)NC(=O)c1cnccn1)B(O)O [Bortezomib] (partner 0.002 µM)
Outline: (§1)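 The day after seeding in 1536-well plates, lung cancer cell lines were treated by pin tool with a single drug, or with a fixed anchor-drug dose together with five library-drug doses (not always all listed) in √10 steps. After 5 days, a combined fix-and-stain solution (final 0.05% Triton X-100, 1% formaldehyde, 1 ug/ml Hoechst) was added. Nuclei counted on 4× images gave relative viability as treated counts over vehicle counts, reported as the median of duplicate plates.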

[2] = compound: CC1=CC=C(C=C1)C(=O)CN2C3=C(CCCC3)SC2=N [Pifithrin_alpha] + C[C@]1(O)C[C@@H](c2nc(-c3ccc4ccc(-c5ccccc5)nc4c3)c3c(N)nccn32)C1 [Linsitinib] (partner 1 µM)
Outline: as §1

Axitinib + Pemetrexed = compound: CNC(=O)c1ccccc1Sc1ccc2c(/C=C/c3ccccn3)n[nH]c2c1 [Axitinib] + Nc1nc2[nH]cc(CCc3ccc(C(=O)N[C@@H](CCC(=O)O)C(=O)O)cc3)c2c(=O)[nH]1 [Pemetrexed] (partner 0.2 µM)
Outline: as §1

Bemcentinib + OSI-027 = compound: Nc1nc(Nc2ccc3c(c2)CC[C@@H](N2CCCC2)CC3)nn1-c1cc2c(nn1)-c1ccccc1CCC2 [Bemcentinib] + COc1cccc2cc(-c3nc([C@H]4CC[C@H](C(=O)O)CC4)n4ncnc(N)c34)[nH]c12 [OSI-027] (partner 0.5 µM)
Outline: as §1

Cell Line	relative viability ([1]; first compound 1 µM)	relative viability ([1]; first compound 3.162 µM)	relative viability ([1]; first compound 10 µM)	relative viability ([1]; first compound 31.62 µM)	relative viability ([1]; first compound 100 µM)	relative viability ([2]; first compound 1 µM)	relative viability ([2]; first compound 3.162 µM)	relative viability ([2]; first compound 10 µM)	relative viability ([2]; first compound 31.62 µM)	relative viability ([2]; first compound 100 µM)	relative viability (Axitinib + Pemetrexed; first compound 0.005 µM)	relative viability (Axitinib + Pemetrexed; first compound 0.01581 µM)	relative viability (Axitinib + Pemetrexed; first compound 0.05 µM)	relative viability (Axitinib + Pemetrexed; first compound 0.1581 µM)	relative viability (Axitinib + Pemetrexed; first compound 0.5 µM)	relative viability (Bemcentinib + OSI-027; first compound 0.04 µM)	relative viability (Bemcentinib + OSI-027; first compound 0.1265 µM)	relative viability (Bemcentinib + OSI-027; first compound 0.4 µM)	relative viability (Bemcentinib + OSI-027; first compound 1.265 µM)	relative viability (Bemcentinib + OSI-027; first compound 4 µM)
NCI-H1563	0.732	0.697	0.755	0.733	0.78	1.17	1.29	1.04	1.06	1	0.844	0.716	0.917	0.729	0.721	0.783	0.812	0.819	0.766	0.757
NCI-H1651	0.857	0.929	0.916	0.88	1.02	0.997	1.13	0.892	0.709	1.02	0.567	0.586	0.587	0.618	0.657	0.771	0.811	0.738	0.741	0.74
NCI-H1666	0.635	0.472	0.465	0.404	0.28	0.69	0.599	0.534	0.521	0.448	0.865	0.972	0.899	0.958	0.873	0.82	0.991	0.883	0.885	0.923
NCI-H1734	1.1	0.928	0.899	0.7	0.817	0.994	0.89	0.862	0.611	0.889	0.413	0.432	0.412	0.435	0.429	0.643	0.66	0.552	0.583	0.591
NCI-H1755	0.894	0.907	0.866	0.862	0.971	0.935	0.991	0.905	0.802	0.969	0.438	0.448	0.403	0.509	0.403	0.79	0.711	0.758	0.793	0.732
NCI-H1792	0.719	0.847	0.666	0.582	0.795	0.563	0.498	0.378	0.422	0.486	1.05	0.784	0.786	0.816	0.792	0.85	0.884	0.881	1	0.768
NCI-H1915	0.947	1.15	0.904		1.35	1.01	1.08	1.08		1.14	0.497	0.494	0.501	0.522	0.536	0.625	0.661	0.635	0.59	0.696
NCI-H1975	0.34	0.306	0.305	0.335	0.271	0.948	0.707	0.643	0.733	0.523	0.294	0.293	0.272	0.269	0.279	0.719	0.82	0.737	0.795	0.772
NCI-H1993		0.815	0.861	0.887	0.892		0.669	0.741	0.684	0.714	0.606	0.601	0.604	0.628	0.541	0.592	0.534	0.557	0.548	0.506
NCI-H2009	0.551	0.907	0.942	0.444	0.798	1.25	1.25	1.16	0.822	0.998	0.997	1.06	1	1.1	1.05	0.626	0.743	0.684	0.709	0.665
NCI-H2023	0.724	0.86	0.856	0.408	0.669	0.674	0.511	0.63	0.46	0.476	0.237	0.232	0.177	0.252	0.291	0.323	0.511	0.462	0.419	0.445
NCI-H2085	0.993	1.07	1.01	0.878	1	0.829	0.934	0.768	0.797	0.859	0.903	0.876	0.905	0.806	0.808	0.722	0.945	0.764	0.686	0.752
NCI-H2087	0.733	0.768	0.941	0.489	1.02	0.765	1.03	0.966	0.776	0.778	0.766	0.593	0.597	0.7	0.728	0.495	0.687	0.589	0.544	0.571
NCI-H2126	1.11	1.09	0.925	0.896	0.94	0.696	0.695	0.68	0.661	0.682	0.679	0.708	0.689	0.75	0.737	0.679	0.692	0.756	0.688	0.683
NCI-H2228	0.919	1.03	0.926	0.86	0.722	1.04	0.606	0.583	0.544	0.555	0.335	0.306	0.307	0.374	0.341	0.186	0.599	0.745	0.575	0.775
NCI-H2347	0.695		0.855	0.814	0.874	0.967	0.913	0.907	0.635	0.95	0.443	0.39	0.441	0.458	0.446	0.413	0.454	0.386	0.429	0.422
NCI-H2405	0.869	0.935	0.925	0.857	0.953		0.869	0.867	0.804	0.776	0.93	1.28	1.22	1.02	1.15	0.665	0.64	0.62	0.707	0.692
NCI-H3122	1.03	0.99	1.05	0.904	1	1.07	1.06	1.03	0.879	1.08	0.218	0.196	0.219	0.193	0.212		1.08	0.978	1.11	0.983
PC-3 [JPC-3]	0.819	0.877	0.77	0.583	0.613	0.964	0.947	0.862	0.853	0.923	0.963		1.32	1.06	1.16	0.765	0.727	0.829	0.739	0.752
PC-14	0.821	0.829	0.964	0.888	0.882	0.975	0.979	0.941	0.764	0.743	0.135	0.114	0.158	0.137	0.142	0.84	1.08	0.938	0.953	0.81
RERF-LC-KJ	0.798	0.855	1.07	1	0.721	0.885	0.769	0.745	0.727	0.631	0.435	0.443	0.485	0.491	0.502	0.594	0.552	0.571	0.58	0.567
SK-LU-1	0.891	1.4	1.41	0.574	1.39	1.08	1.16	1.26	0.769	0.832	1.01	1	1.09	1.03	1.13	0.37	0.382	0.35	0.369	0.331
SW 1573	1.01	0.98	1.13	0.899	1.14	0.82	0.713	0.698	0.768	0.758	0.841	0.777	0.928	0.77	0.816	0.609	0.731	0.677	0.589	0.661
UMC-11	0.818	0.803	0.759	0.574	1.05	1.16	1.01	1.1	0.913	1.49	0.774	0.81	0.77	0.867	0.81	0.466	0.528	0.504	0.516	0.473
